According to patent publication US8389538B2, “Rexinoid compound having alkoxy group” (National University Corporation Okayama University, priority 2007, dated 2013):
Read-outs that look alike come from different tables or passages of the source.

Columns and labels:
RXRβ = molecular target: T1, RXRβ (Homo sapiens, UniProt P28702); experiment: RXR reporter gene assay (luciferase) in COS-1 cells, RXRβ; format: cell-based; settings: for Emax: COS-1; for EC50 / RXRβ Emax (%): COS-1 cells; for EC50: half of maximum transcriptional activation potential; for RXRβ Emax (%): relative to PA024 (1 μM) = 100%
T1 construct: expressed in transfected cells; host or cells: COS-1 cells
T1 sequence (P28702 1-533): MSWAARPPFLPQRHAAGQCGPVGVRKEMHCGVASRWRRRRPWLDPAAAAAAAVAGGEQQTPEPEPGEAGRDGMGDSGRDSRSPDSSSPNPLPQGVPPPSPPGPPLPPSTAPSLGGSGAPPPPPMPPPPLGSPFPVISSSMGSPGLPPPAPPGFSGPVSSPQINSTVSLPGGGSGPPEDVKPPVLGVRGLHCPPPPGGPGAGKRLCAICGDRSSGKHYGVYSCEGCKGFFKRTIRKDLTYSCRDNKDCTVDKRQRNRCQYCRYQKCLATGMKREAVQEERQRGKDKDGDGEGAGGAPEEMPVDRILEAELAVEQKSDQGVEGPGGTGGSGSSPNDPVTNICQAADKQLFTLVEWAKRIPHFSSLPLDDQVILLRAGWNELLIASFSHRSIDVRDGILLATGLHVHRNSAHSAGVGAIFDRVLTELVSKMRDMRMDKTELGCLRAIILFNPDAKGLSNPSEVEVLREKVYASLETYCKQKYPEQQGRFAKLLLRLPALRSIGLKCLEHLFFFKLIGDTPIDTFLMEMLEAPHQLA
Description: (§1) Most of nuclear receptors are transcription factors associated with regulating transcription, so that reporter gene assay is conducted as a means of measuring its transcription activity. An expression plasmid for RXR receptor protein and a reporter plasmid were introduced into cells such as COS-1 cells and HeLa cells to cause overexpression. And, when RXR agonist is bound to the receptor, transcription is induced in a ligand dependent manner, and a protein which is referred to as fusion protein downstream is produced. The binding of this fusion protein to the binding site on the reporter plasmid initiates the transcription to produce luciferase downstream. RXR agonistic activity was measured by measuring this luciferase activity.
(§2) Dulbecco's Modified Eagle MEM medium (DMEM) was used as growth medium.
(§3) Passage was conducted by removing culture supernatant from the cell culture grown in a 100 mm culture dish, collecting cells by trypsinization, centrifuging at 1000 rpm at 4° C. for 3 minutes, then dispersing cells by adding growth medium and growing them in a 100 mm culture dish (15 mL of growth medium) at 37° C. in the presence of 5% CO2.
(§4) Transformation was conducted using Effectene™ Transfection Reagent (QIAGEN). Further, Luciferase Assay System was used for evaluating luciferase activity. Am80 was used for the positive control of RAR, and 9-cis retinoic acid was used for the positive control of RXR. They were dissolved in DMSO for use as a stock solution and measured on every plate to be assayed.
(§5) • On day 1: COS-1 cells were seeded along with 15 mL of growth medium in a 60 mm culture dish at 50×10^4 cells and were cultured over night. • On day 2: Transformation was conducted by lipofection using Effectene™ Transfection Reagent. • On day 3: 16 to 18 hours later, the culture supernatant was removed, cells were collected by trypsinization, centrifugation was conducted at 1000 rpm at 4° C. for 3 minutes, then cells were dispersed by adding growth medium, and then the cells were seeded on a 96-well white plate at 2.0×10^4 cells/well. Then, each compound was added at DMSO concentration of 1% or below. • On day 4: 24 hours later, 25 μL of the supernatant was used for SEAP measurement, and the rest cell-containing solution was used for measuring luciferase activity.
(§6) In Table 5, a) EC50 indicated a concentration giving the half of the maximum transcriptional activation potential.

[1] = system: Human leukemia cell strain HL-60; experiment: HL-60 differentiation induction (NBT reduction method); format: cell-based; settings: for Retinoid synergistic activity BA(%) / Retinoid activity BA(%): maximum differentiation inducing rate relative to total cell number
Description: Human leukemia cell strain HL-60 differentiates into granulocytes (neutrophils) to come to have an ability to express active oxygen. […] A method for measuring differentiation inducibility of cells into granulocytes by using this principle is referred to as NBT reduction method. So, the differentiation inducibility of the synthesized compound was measured by NBT reduction method. […] Each compound was dissolved in dimethylsulfoxide (DMSO) into 20 mM to prepare a stock solution. NBT was prepared into 0.2 w/v % by using PBS (−) 2 hours before use and incubated at 37° C. TPA was dissolved in ethanol (EtOH) into 2 mg/mL to prepare a stock solution. This TPA solution was prepared into 20 μg/mL by using PBS (−) at the time of use. […] The action of RXR agonist is enhanced by the combined use of that and RAR agonist. […] After four days cultivation, cells were collected by centrifugation (4° C., 1500 rpm, 5 minutes). After these cells were seeded onto 1 mL of a fresh growth medium, then 1 mL of 0.2 w/v % NBT solution and 20 μl of 20 μg/ml of TPA solution were added, and incubation was carried out in the incubator containing 5% CO2 at 37° C. for 30 minutes. Then, stained cell number and total cell number were counted on a cell counter. Meanwhile, the measurement was conducted three times by counting 200 cells or more at a time and a differentiation inducing rate was calculated from a mean value obtained by averaging them. […] Meanwhile, “inert” means that differentiation inducibility can not be observed even at 10 μM. Likewise, b) BA (bioactivity) (%) refers to the maximum differentiation inducing rate relative to the total cell number in this test.

[2] = system: edema induced by carrageenin; experiment: Carrageenin edema test; format: in vivo; settings: rats, 10 mg/kg oral, 3 hours before carrageenin; 3 hours after the administration of carrageenin; hind foot pads
Description: Carrageenin edema test was used for anti-inflammatory test by using rats. 10 mg/kg compound 1a (NEt-3IP) was orally administered to five rats in a group, and then 3 hours later, 1% carrageenin solution, which was an edema-inducing substance, was subcutaneously administered to the hind foot pads (0.1 mL/rat). Then, 1, 2, 3 and 4 hours after that, the thickness of edema of the hind foot pads was measured. […] The rate of inhibiting edema was 27% 3 hours after the administration of carrageenin.

RXRγ = molecular target: T2, RXRγ (Homo sapiens, UniProt P48443); experiment: RXR reporter gene assay (luciferase) in COS-1 cells, RXRγ; format: cell-based; settings: for Emax: COS-1; for EC50 / RXRγ Emax (%): COS-1 cells; for EC50: half of maximum transcriptional activation potential; for RXRγ Emax (%): relative to PA024 (1 μM) = 100%
T2 construct: expressed in transfected cells; host or cells: COS-1 cells
T2 sequence (P48443 1-463): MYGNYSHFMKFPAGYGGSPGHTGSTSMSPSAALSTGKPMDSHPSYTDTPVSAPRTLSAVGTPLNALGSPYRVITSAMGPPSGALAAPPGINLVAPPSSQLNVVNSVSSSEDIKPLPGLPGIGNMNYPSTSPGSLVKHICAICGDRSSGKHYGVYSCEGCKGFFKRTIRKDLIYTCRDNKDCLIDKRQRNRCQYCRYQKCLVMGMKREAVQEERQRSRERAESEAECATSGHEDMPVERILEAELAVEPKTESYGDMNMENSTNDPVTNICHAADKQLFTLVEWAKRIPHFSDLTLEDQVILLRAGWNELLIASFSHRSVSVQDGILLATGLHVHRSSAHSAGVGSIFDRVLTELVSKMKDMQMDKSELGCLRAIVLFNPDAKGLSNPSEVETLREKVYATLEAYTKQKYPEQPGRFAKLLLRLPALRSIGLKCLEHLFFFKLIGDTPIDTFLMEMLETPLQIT
Description: as §1, §2, §3, §4, §5, §6

RXRα = molecular target: T3, RXRα (Homo sapiens, UniProt P19793); experiment: RXR reporter gene assay (luciferase) in COS-1 cells, RXRα; format: cell-based; settings: for Emax: COS-1; for EC50 / RXRα Emax (%): COS-1 cells; for EC50: half of maximum transcriptional activation potential; for RXRα Emax (%): relative to PA024 (1 μM) = 100%
T3 construct: expressed in transfected cells; host or cells: COS-1 cells
T3 sequence (P19793 1-462): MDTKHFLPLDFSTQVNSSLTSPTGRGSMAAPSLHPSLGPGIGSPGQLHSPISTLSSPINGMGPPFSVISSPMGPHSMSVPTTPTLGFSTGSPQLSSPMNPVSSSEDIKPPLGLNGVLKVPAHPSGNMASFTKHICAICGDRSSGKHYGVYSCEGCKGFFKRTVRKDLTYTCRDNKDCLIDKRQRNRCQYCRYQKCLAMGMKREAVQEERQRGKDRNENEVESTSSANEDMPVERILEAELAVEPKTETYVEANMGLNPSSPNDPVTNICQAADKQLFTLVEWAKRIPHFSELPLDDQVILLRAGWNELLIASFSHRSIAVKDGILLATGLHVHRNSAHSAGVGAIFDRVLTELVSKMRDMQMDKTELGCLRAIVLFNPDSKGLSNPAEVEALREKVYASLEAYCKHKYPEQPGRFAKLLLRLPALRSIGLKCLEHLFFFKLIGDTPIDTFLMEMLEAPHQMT
Description: as §1, §2, §3, §4, §5, §6

[3] = system: Histone Deacetylase (HDAC); experiment: HDAC Activity/Inhibitor Screening Assay Kit (Cayman); format: biochemical; settings: at 100 μM
Description: Activity Evaluation Method 3: Histone Deacetylase (HDAC) Inhibitory Activity
HDAC inhibitory activity was evaluated for compounds represented by formulae XVII and XVIII, through the use of HDAC Activity/Inhibitor Screening Assay Kit supplied by Cayman and according to that protocol.

[4] = Am80 present at 3.3×10^−10 M, half of maximum differentiation inducing rate, read-out: Retinoid synergistic activity SEC50
[5] = Homo sapiens, HL-60, 96 h, test compound alone, concentration giving half of maximum differentiation inducing rate, four days culture, read-out: Retinoid activity EC50
[6] = test compound alone, concentration giving half of maximum differentiation inducing rate, four days culture, read-out: Retinoid activity EC50

Row | EC50 (RXRβ) | EC50 [1, 4] | EC50 (RXRγ) | EC50 (RXRα) | EC50 [1, 6] | SMILES | Retinoid synergistic activity BA(%) ([1]; Am80 present at 3.3×10^−10 M) | Retinoid activity BA(%) ([1]; test compound alone) | further results
1 | 35 nM | 10 nM | > 380 nM | 27 nM |  | CCN(c1ccc(C(C)C)c(OC(C)C)c1)c1ccc(C(=O)O)cn1 [Compound 1a] | 80% | 4% | Emax (RXRβ): 110%; EC50 [1, 5]: > 10000 nM; rate of inhibiting edema [2]: 27%; Emax (RXRγ): > 88%; Emax (RXRα): 130%; selectivity for RXRα/β over RXRγ (RXRα; reporter gene assay, RXRα/β versus RXRγ): ≥ 10 times
2 |  | 900 nM |  |  | > 10000 nM | CC(C)Oc1cc(N(c2ccc(C(=O)O)cn2)S(C)(=O)=O)ccc1C(C)C [Compound 1b] | 63% | 44% | 
3 |  | 4500 nM |  |  | > 10000 nM | CC(C)Oc1cc(Nc2ccc(C(=O)O)cn2)ccc1C(C)C [Compound 1c] | 63% | 24% | 
4 |  | 23 nM |  |  | > 10000 nM | CCCOc1cc(N(CC)c2ccc(C(=O)O)cn2)ccc1C(C)C [Compound 2a] | 74% | 4% | 
5 |  | 800 nM |  |  | > 10000 nM | CCCOc1cc(N(c2ccc(C(=O)O)cn2)S(C)(=O)=O)ccc1C(C)C [Compound 2b] | 63% | 50% | 
6 |  | 4300 nM |  |  | > 10000 nM | CCCOc1cc(Nc2ccc(C(=O)O)cn2)ccc1C(C)C [Compound 2c] | 60% | 50% | 
7 | > 1300 nM | 23 nM | > 350 nM | > 660 nM | > 10000 nM | CCN(c1ccc(OC(C)C)c(C(C)C)c1)c1ccc(C(=O)O)cn1 [Compound 4a] | 64% |  | RXRβ Emax (%) (RXRβ): >80%; RXRγ Emax (%) (RXRγ): >81%; RXRα Emax (%) (RXRα): >110%
8 |  | > 10000 nM |  |  | > 10000 nM | CC(C)Oc1ccc(Nc2ccc(C(=O)O)cn2)cc1C(C)C [Compound 4c] | 29% | 24% | 
9 |  | > 10000 nM |  |  | > 10000 nM | CCCOc1ccc(Nc2ccc(C(=O)O)cn2)cc1C(C)C [Compound 5c] | 15% | 3% | 
10 | 18 nM | 12 nM | > 58 nM | 6 nM |  | CCN(c1ccc(C(C)C)c(OC(C)C)c1)c1ncc(C(=O)O)cn1 [Compound 6a] | 87% | 3% | Emax (RXRβ): 100%; EC50 [1, 5]: > 10000 nM; Emax (RXRγ): 105%; Emax (RXRα): 110%
11 | 7.3 nM |  | 4.9 nM | 2.9 nM |  | CCN(c1ccc(C(C)C)c(OCC(C)C)c1)c1ncc(C(=O)O)cn1 [Compound 7a] |  |  | RXRβ Emax (%) (RXRβ): 140%; RXRγ Emax (%) (RXRγ): 105%; RXRα Emax (%) (RXRα): 110%
12 |  |  |  |  |  | CCN(c1ccc(C(C)C)c(OC(C)C)c1)c1ccc(/C=C/C(=O)O)cn1 [XVII] |  |  | HDAC activity inhibition rate [3]: 78%
